The test system of data set [1] is c-Cbl KO and WT Mouse Embryonic Fibroblasts (MEF). The experiment in a line: Western blotting of apoptosis proteins in c-Cbl KO and WT MEFs treated with apoptotic inducers. It counts as cell-based. The conditions noted are these: for XIAP expression, decrease relative to control level / c-IAP2 expression, decrease relative to control level: MEFs, apoptosis activation 24 hours (FIG. 3B). The method, then:
The western blotting (WB) experiments, immunohistochemistry (IHC) experiments and RT PCR experiments, with coamplification of the S 20 ribosomal gene, were carried out according to conventional methods already described in e.g. Omezzine et al. (2003, Biol. Reprod., 69: 752-760), Bozec et al. (2004, J. Endocr., 183: 79-90) and El Chami et al. (2005, J. Cell. Biol., 651-661).
The MEFs KO for c-cbl and the MEFs WT were cultured in DMEM, 10% FCS. The apoptosis inducers were used at a final concentration of 0.5 mM in case of H2O2, and at 10 μM in case of etoposide. The cells were tested for apoptosis 24 hours after treatment. The human prostate cancer lines were transfected with 125 nM of c-cbl IRNA for 6 hours, and were tested for quenching of c-cbl expression 24 or 48 hours after transfection. The treatment was the same with RAT1-MEN2A cells.
(§1) Each of them are known to involve different signaling routes, both leading to the mitochondrial pathway of apoptosis. Hydrogen peroxide activates C-Jun Kinase, whereas Etoposide blocks topoisomerase II causing dsDNA breaks and DNA-PK/p53 activation (DeYulia et al. 2005 Proc Natl Acad Sci USA 102:5044-9; Kamata and Hirata 1999 Cell Signal 11:1-14; Karpinich et al. 2002 J Biol Chem 277:16547-52).
(In general: A western blot detects proteins with antibodies after separation by electrophoresis.)

In data set [2] the test system is LNCaP cells. In words: Protein expression in LNCaP cells cultured with hydrogen peroxide or etoposide. It counts as cell-based, human. The conditions noted are these: 24 hours; for Bax protein expression: particularly upon etoposide treatment; for Bcl-2 expression / c-Cbl expression / c-IAP2 expression: versus absence of agent. The method, then:
(§2) A. c-Cbl expression upon a 24 hours treatment with 25 or 50 nM of hydrogen peroxide respectively, or with 10 or 30 μM of etoposide respectively. Expression of the anti-apoptotic Bcl-2 and c-IAP2 proteins and of the pro-apoptotic Bcl-2 family protein Bax is also shown. B. c-Cbl expression after 48 hours of c-Cbl silencing. Expression of APE1, which is indicative of oxidative stress, is shown compared with medium control (Ctrl) and with si-control (si-Ctrl).
(§3) LNCaP is a human cell line, derived from a prostatic hormone-dependent metastatic tumor. The cells were maintained in RPMI 1640 medium (Invitrogen), supplemented with 7.5% FCS, 20 μg/ml streptomycin, 20 U/ml nystatin. LNCaP were used between the passages 50-60. For western-blotting LNCaP cells were seeded in 10cm disk (22.10^5 cells) and 6 cm disk (8.10^5 cells) respectively, with 5 disks per condition. Cells were allowed to attach for 24H and treated with various concentrations of R1881 at day 0. All the cells, including the controls, were cultured in the presence of the same ethanol concentration. For H2O2 or etoposide treatment, LNCaP cells were cultured for 24 hours in the presence of known concentrations of H2O2 or etoposide. The RNA silencing was classically done in Optimen medium (Gibco) using lipofectamine 2000 following the manufacturer's instructions (Invitrogen). The c-Cbl RNAi was generated by Eurogentec. Its sequence is: […] (SEQ ID NO: 2). The siRNA controls were purchased from Invitrogen : siRNA-A (sc-37007) and siRNA-B (sc-44230).

The test system of data set [3] is c-Cbl KO and WT Mouse Embryonic Fibroblasts (MEF). The experiment in a line: Apoptotic cells (DAPI nuclear fragmentation, TUNEL) in c-Cbl KO and WT MEFs treated with H2O2 or Etoposide. The format is cell-based. Details: more apoptotic cells in KO than in WT MEF cultures: dose or concentration left out as unconfirmed. The conditions noted are these: for more apoptotic cells in KO than in WT MEF cultures: average, 16 or 24 H. The protocol:
The MEFs KO for c-cbl and the MEFs WT were cultured in DMEM, 10% FCS. […] The cells were tested for apoptosis 24 hours after treatment. The human prostate cancer lines were transfected with 125 nM of c-cbl IRNA for 6 hours, and were tested for quenching of c-cbl expression 24 or 48 hours after transfection. The treatment was the same with RAT1-MEN2A cells.
as §1

Data set [4] has as its system c-Cbl. The experiment in a line: c-Cbl expression (Western blotting, RT-PCR) in prostate lobes of adult rats exposed to flutamide. It counts as in vivo, rat.
Data set [5] has as its system c-Cbl. In words: In situ c-Cbl staining of rat prostate after flutamide treatment. The following applies: 10mg/kg/day, 96 H. The format is in vivo.
The test system of data set [6] is LNCaP cells. The experiment in a line: c-Cbl silencing in LNCaP cells, APE1/REF1 oxidative stress signal. The format is cell-based, human. The conditions noted are these: 48 hours of c-Cbl silencing, versus Ctrl and si-Ctrl. The method, then:
as §2
as §3, with “(SEQ ID NO: 2). The siRNA controls were purchased from Invitrogen : siRNA-A (sc-37007) and siRNA-B (sc-44230).” left out

Data set [7] has as its system c-cbl. The experiment in a line: Effectiveness of c-cbl iRNA on c-cbl. The following applies: human, rat and mouse c-cbl. An excerpt: (§4) The c-cbl IRNA was produced by Eurogentec and had the following sequences: 5′ […] 3′ (SEQ ID NO: 2) and 5′ […] 3′ (SEQ ID NO: 3). It is effective on human, rat and mouse c-cbl. It is ineffective on cbl-b.
Another data set relates to cbl-b. The experiment in a line: Effectiveness of c-cbl iRNA on cbl-b.
Source text: as §4

Entries after “also recorded” stand apart in the source; their conditions may differ.

Turning to `COc1cc([C@@H]2c3cc4c(cc3[C@@H](O[C@@H]3O[C@@H]5CO[C@@H](C)O[C@H]5[C@H](O)[C@H]3O)[C@H]3COC(=O)[C@H]23)OCO4)cc(OC)c1O` [Etoposide], the “cleaved caspase 3 expression” value in data set [1] (KO or WT MEFs, 24 hours) was “slight but not significant increase”. In addition, in data set [1], the “XIAP expression, decrease relative to control level” value is “around one/third” and the “c-IAP2 expression, decrease relative to control level” value is on record as “around one/third”. Besides, in the data set with LNCaP cells [2], the Bax protein expression entry is “increased”, the Bcl-2 expression entry is “slightly less expressed”, the c-Cbl expression result was “slightly less expressed; also recorded: decreased” and the c-IAP2 expression result is “slightly less expressed”. Further, the “percentage of apoptotic cells” value in data set [3] (WT MEF cultures) is 5.8%. Also, the “more apoptotic cells in KO than in WT MEF cultures” value in data set [3] was 29%. For the same molecule, the “percentage of apoptotic cells” value in data set [3] (c-Cbl KO MEF cultures) is listed as 4%.
Consider `OO` [H2O2, Hydrogen peroxide], for which, in data set [1], the “XIAP expression, decrease relative to control level” value is “around one/third” and the “c-IAP2 expression, decrease relative to control level” value is given as “around one/third”. Further, the “activated caspase 3 expression increase” value in data set [1] (WT MEFs, 24 hours) is recorded as “two times”. Besides, the “cleaved (activated) caspase 3 expression relative to control” value in data set [1] (c-Cbl KO MEFs, 24 hours) is “three times and half”. Also, in the data set on LNCaP cells [2], the Bax protein expression result was “increased”, the Bcl-2 expression entry is given as “slightly less expressed”, the c-Cbl expression entry is “slightly less expressed” and the c-IAP2 expression entry is on record as “slightly less expressed”. In the data set on LNCaP cells [2] (listed as H202), the c-Cbl expression entry is given as “decreased”. In addition, the “sensitivity of c-cbl KO MEF cells versus WT MEF cells” value in data set [3] (TUNEL, FIG. 10) is listed as “about twice”. Further, the “percentage of apoptotic cells” value in data set [3] (WT MEF cultures) came out at 4.9%. Besides, the “more apoptotic cells in KO than in WT MEF cultures” value in data set [3] worked out at 43%. In addition, the “percentage of apoptotic cells” value in data set [3] (c-Cbl KO MEF cultures) turned out to be 8.75%.
Turning to `CC(C)C(=O)Nc1ccc([N+](=O)[O-])c(C(F)(F)F)c1` [flutamide], the “dose from which decreased c-cbl expression was observed” value in the data set on c-Cbl [4] (dose/effect experiments, rat ventral prostate) is no less than 2 mg/kg/day. Besides, the “impact on the number of living cells” value with c-Cbl [4] (doses 2 to 10 mg/kg/day) was “very weak impact”. The “integrity of the epithelium border” value with c-Cbl [5] is “did not affect at all”.
As to “c-cbl IRNA: c-cbl iRNA produced by Eurogentec, sequences SEQ ID NO: 2 and SEQ ID NO: 3 (chain 1 GGGAAGGCUUCUAUUUGUU; chain 2 CUGUCCAUCUAGAGACAAA; listed as RNA, chemistry not given here)”, the “anti-APE1/REF1 signal (oxidative stress)” value in the data set with LNCaP cells [6] is reported as “slight decrease”. Also, in the data set with c-cbl [7], the effectiveness on c-cbl entry was “effective”. Moreover, the effectiveness on cbl-b result in the data set with cbl-b was “ineffective”.
